Test results as given in US11174253B2, “Compound and pharmaceutical composition containing the same” (ALPHALA CO., LTD., priority 2017, dated 2021).

Test system: hepatocellular carcinoma cell line Hep3B
Assay: Growth inhibition of Hep3B cells, 48 hr treatment, Hoechst 33342 nucleus count (GE InCell 2200)
Assay type: cell-based
Settings: Homo sapiens, Table 1, ratio of number of tumor cells treated with 10 μM compound to non-treated cells
Experimental: The potency of selected compounds was defined by the growth inhibition ability to the hepatocellular carcinoma cell line Hep3B. The Hep3B cells were treated with selected compounds for 48 hr under 37° C., 5% CO2, and 95% relative humidity.
The number of treated cells was determined by GE InCell 2200 system, and treated cells were stained with Hoechst 33342 which can reveal the remained nucleus in culture plate. The proportion of survival cells then were calculated with the ratio of treated/non-treated cells. The growth inhibition/cytotoxic effect of selected compounds were evaluated by the following protocol of NCI-60 screening platform. The human tumor cell lines are plating on a 96 well plate in a fixed density 24 hr prior compound treatment. Compounds with multiple concentrations are then added into each well for further 48 hr incubation. Cell viability is assessed by MTS method and the potency of compound is represented by GI50 and LC50 calculated by MTS result.
Herein, the “Ratio in 10 μM (%)” in the following Tables 1-6 refers to the ratio of the number of tumor cells treated with 10 μM of selected compounds to the number of non-treated tumer cells.

Going from `Nc1nc2ccc(CC(=O)Nc3nnc(-c4ccc(Br)c([N+](=O)[O-])c4)s3)cc2s1` [Compound 1-13, 2-(2-aminobenzo[d]thiazol-6-yl)-N-(5-(4-bromo-3-nitrophenyl)-1,3,4-thiadiazol-2-yl)acetamide] to `CCOc1ccc(-c2nnc(NC(=O)Cc3ccc4nc(N)sc4c3)s2)nc1` [Compound 1-30, 2-(2-aminobenzo[d]thiazol-6-yl)-N-(5-(5-ethoxypyridin-2-yl)-1,3,4-thiadiazol-2-yl)acetamide], the viability at 10 µM falls from 60% to 37%.

Same assay, conditions: Homo sapiens, Table 4, ratio of number of tumor cells treated with 10 μM compound to non-treated cells

`CCOc1ccc(-c2cnc(NC(=O)Cc3ccc4nc(N)sc4c3)[nH]2)c(OCCOC)c1` [Compound 4-3, 2-(2-aminobenzo[d]thiazol-6-yl)-N-(5-(4-ethoxy-2-(2-methoxyethoxy)phenyl)-1H-imidazol-2-yl)acetamide] showed a viability at 10 µM of 40%.

Same assay, conditions: Homo sapiens, Table 5, ratio of number of tumor cells treated with 10 μM compound to non-treated cells

Compared with `CCOc1cc(OCC)cc(-c2nc(NC(=O)c3ccc([N+](=O)[O-])s3)sc2Oc2ccccc2)c1` [Compound 5-36, N-(4-(3,5-diethoxyphenyl)-5-phenoxythiazol-2-yl)-5-nitrothiophene-2-carboxamide], `COc1cccc(-c2nc(NC(=O)c3ccc([N+](=O)[O-])s3)sc2Oc2ccccc2)c1` [Compound 5-4, N-(4-(3-methoxyphenyl)-5-phenoxythiazol-2-yl)-5-nitrothiophene-2-carboxamide] is higher in viability at 10 µM: 39% for the first, 63% for the second.

First: CCOc1ccc(-c2nc(NC(=O)c3ccc([N+](=O)[O-])s3)sc2Oc2cccc(F)c2)cc1 [Compound 5-54, N-(4-(4-ethoxyphenyl)-5-(3-fluorophenoxy)thiazol-2-yl)-5-nitrothiophene-2-carboxamide]
Second: CCOc1ccc(-c2nc(NC(=O)c3ccc([N+](=O)[O-])s3)sc2Oc2ccc(F)cc2)cc1 [Compound 5-55, N-(4-(4-ethoxyphenyl)-5-(4-fluorophenoxy)thiazol-2-yl)-5-nitrothiophene-2-carboxamide]
The viability at 10 µM of the first is lower: 35% for the first, 47% for the second.

Going from `O=C(Nc1nc(-c2ccc(Br)cc2)c(Oc2ccccc2)s1)c1ccc([N+](=O)[O-])s1` [Compound 5-1, N-(4-(4-bromophenyl)-5-phenoxythiazol-2-yl)-5-nitrothiophene-2-carboxamide] to `COCCOc1ccc(-c2nc(NC(=O)c3ccc([N+](=O)[O-])s3)sc2Oc2ccccc2)cc1` [Compound 5-16, N-(4-(4-(2-methoxyethoxy)phenyl)-5-phenoxythiazol-2-yl)-5-nitrothiophene-2-carboxamide], the viability at 10 µM falls from 66% to 59%.

Molecule `CCOc1ccc(-c2nc(NC(=O)c3ccc([N+](=O)[O-])s3)sc2Oc2ccc(C(F)(F)F)cc2)cc1` [Compound 5-25, N-(4-(4-ethoxyphenyl)-5-(4-(trifluoromethyl)phenoxy)thiazol-2-yl)-5-nitrothiophene-2-carboxamide] has a viability at 10 µM of 32%.

Same assay, conditions: Homo sapiens, Table 6, ratio of number of tumor cells treated with 10 μM compound to non-treated cells

First: CC(C)(C)c1ccc(-c2nc(NC(=O)c3ccc([N+](=O)[O-])s3)sc2-c2cccc(Cl)c2)cc1 [Compound 6-56, N-(4-(4-(tert-butyl)phenyl)-5-(3-chlorophenyl)thiazol-2-yl)-5-nitrothiophene-2-carboxamide]
Second: CCOc1cc(-c2sc(NC(=O)c3ccc([N+](=O)[O-])s3)nc2-c2ccc(C)cc2)ccc1Br [Compound 6-20, N-(5-(4-bromo-3-ethoxyphenyl)-4-(p-tolyl)thiazol-2-yl)-5-nitrothiophene-2-carboxamide]
The viability at 10 µM of the first is lower: 28% for the first, 45% for the second.

Going from `O=C(Nc1nc(-c2cccc([N+](=O)[O-])c2)c(Br)s1)c1ccc([N+](=O)[O-])s1` [Compound 6-13, N-(5-bromo-4-(3-nitrophenyl)thiazol-2-yl)-5-nitrothiophene-2-carboxamide] to `O=C(Nc1nc(-c2ccccc2[N+](=O)[O-])cs1)c1ccc([N+](=O)[O-])s1` [Compound 6-11, 5-nitro-N-(4-(2-nitrophenyl)thiazol-2-yl)thiophene-2-carboxamide], the viability at 10 µM falls from 81% to 62%.

`O=C(Nc1nc(-c2ccc(Br)cc2)cs1)c1ccc([N+](=O)[O-])s1` [Compound 6-7, N-(4-(4-bromophenyl)thiazol-2-yl)-5-nitrothiophene-2-carboxamide] was tested, and the viability at 10 µM was 81%.
